Source: patent US20100311729A1, “Substituted imidazopyridazines and pyrrolopyrimidines as lipid kinase inhibitors” (priority 2007, published 2010)

Key:
[1] = target: T1, PI3K alfa (Homo sapiens, UniProt P42336); assay: PI3 kinase assay (Kinase-Glo luminescence), PI3K alfa; format: biochemical; conditions: Enzymatic Data; read-out: PI3K alfa IC50 [umol]
T1 construct: for the p110-a subunit (with a deletion of the first 20 amino acids); His tag (C); made in house; host or cells: baculovirus; Tn5 (Trichoplusia ni) or TiniPro insect cells
Method in brief: (§1)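 Recombinant PI3K constructs (alfa 10 nM, delta 10 nM, gamma 150 nM) with 1 μM ATP and 10 μg/mL phosphatidylinositol in Tris pH 7.5, MgCl2, NaCl, CHAPS, DTT; 60 min (alfa, delta) or 120 min (gamma) at room temperature. ATP depletion read by Kinase-Glo luminescence; IC50 from 4-parameter logistic fit over 8 concentrations.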

[2] = target: T2, PI3K beta (Homo sapiens, UniProt P42338); assay: PI3 kinase assay (Kinase-Glo luminescence), PI3K beta; format: biochemical; conditions: Enzymatic Data; read-out: PI3K beta IC50 [umol]
T2 construct: for the full-length p110-b subunit are generated and fused by overlapping PCR; His tag (C); made in house; host or cells: baculovirus; Tn5 (Trichoplusia ni) or TiniPro insect cells
Method in brief: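 PI3Kβ (25 nM, BV-949) with 10 μg/mL phosphatidylinositol in Tris pH 7.5/MgCl2/NaCl/CHAPS/DTT buffer; reaction started with 1 μM ATP, 60 min at room temperature. ATP depletion read by Kinase-Glo luminescence; 8-point dilutions, IC50 by four-parameter logistic fit.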

[3] = target: T3, PI3K delta (Homo sapiens, UniProt O00329); assay: PI3 kinase assay (Kinase-Glo luminescence), PI3K delta; format: biochemical; conditions: Enzymatic Data; read-out: PI3K delta IC50 [umol]
T3 construct: for the full-length p110-d subunit are generated and fused by overlapping PCR; His tag (C); made in house; host or cells: baculovirus; Tn5 (Trichoplusia ni) or TiniPro insect cells
Method in brief: as §1

[4] = target: T4, PI3K gamma (Homo sapiens, UniProt P48736); assay: PI3 kinase assay (Kinase-Glo luminescence), PI3K gamma; format: biochemical; conditions: Enzymatic Data; read-out: PI3K gamma IC50 [umol]
T4 construct: PI3Kγ BV-950 p110g(D144aa)-C-Term His Tag; His tag (C); made in house; host or cells: construct from the Roger Williams lab (MRC LMB) in pVL1393; baculovirus; Tn5 (Trichoplusia ni) or TiniPro insect cells
Method in brief: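 Kinase-Glo luminescence assay with 1 μM ATP and 10 μg/mL phosphatidylinositol (final), reaction started by ATP addition. IC50 from 4-parameter logistic fit of percent inhibition at 8 compound concentrations (usually 10 down to 0.003 […]).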

T4 sequence (P48736 144-1102 limits assumed): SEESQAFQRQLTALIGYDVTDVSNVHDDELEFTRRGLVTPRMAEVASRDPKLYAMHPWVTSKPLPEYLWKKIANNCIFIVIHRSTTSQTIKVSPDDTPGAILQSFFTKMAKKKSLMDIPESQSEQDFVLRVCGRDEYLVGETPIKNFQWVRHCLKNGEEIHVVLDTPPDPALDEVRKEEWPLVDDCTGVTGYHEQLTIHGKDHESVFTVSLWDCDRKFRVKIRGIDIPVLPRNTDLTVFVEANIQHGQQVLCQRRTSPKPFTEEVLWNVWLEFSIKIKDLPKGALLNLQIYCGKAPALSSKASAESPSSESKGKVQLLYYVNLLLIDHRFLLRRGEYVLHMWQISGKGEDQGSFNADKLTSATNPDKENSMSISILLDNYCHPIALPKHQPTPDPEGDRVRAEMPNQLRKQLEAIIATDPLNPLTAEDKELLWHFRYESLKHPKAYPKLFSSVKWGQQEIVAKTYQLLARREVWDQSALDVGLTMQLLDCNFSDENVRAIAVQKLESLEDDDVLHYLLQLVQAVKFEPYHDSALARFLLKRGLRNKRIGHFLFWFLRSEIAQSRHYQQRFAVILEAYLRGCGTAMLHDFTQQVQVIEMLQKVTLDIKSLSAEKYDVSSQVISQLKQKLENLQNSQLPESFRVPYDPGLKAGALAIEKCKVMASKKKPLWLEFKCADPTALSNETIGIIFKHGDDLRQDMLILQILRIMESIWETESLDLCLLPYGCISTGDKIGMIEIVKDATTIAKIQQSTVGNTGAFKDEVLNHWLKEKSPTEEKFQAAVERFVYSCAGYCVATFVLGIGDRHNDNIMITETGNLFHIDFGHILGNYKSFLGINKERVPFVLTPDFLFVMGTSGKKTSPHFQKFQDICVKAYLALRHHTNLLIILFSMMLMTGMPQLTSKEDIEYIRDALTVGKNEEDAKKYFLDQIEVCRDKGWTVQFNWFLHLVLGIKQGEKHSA
T2 sequence (P42338 with tags, fused parts or gaps limits assumed): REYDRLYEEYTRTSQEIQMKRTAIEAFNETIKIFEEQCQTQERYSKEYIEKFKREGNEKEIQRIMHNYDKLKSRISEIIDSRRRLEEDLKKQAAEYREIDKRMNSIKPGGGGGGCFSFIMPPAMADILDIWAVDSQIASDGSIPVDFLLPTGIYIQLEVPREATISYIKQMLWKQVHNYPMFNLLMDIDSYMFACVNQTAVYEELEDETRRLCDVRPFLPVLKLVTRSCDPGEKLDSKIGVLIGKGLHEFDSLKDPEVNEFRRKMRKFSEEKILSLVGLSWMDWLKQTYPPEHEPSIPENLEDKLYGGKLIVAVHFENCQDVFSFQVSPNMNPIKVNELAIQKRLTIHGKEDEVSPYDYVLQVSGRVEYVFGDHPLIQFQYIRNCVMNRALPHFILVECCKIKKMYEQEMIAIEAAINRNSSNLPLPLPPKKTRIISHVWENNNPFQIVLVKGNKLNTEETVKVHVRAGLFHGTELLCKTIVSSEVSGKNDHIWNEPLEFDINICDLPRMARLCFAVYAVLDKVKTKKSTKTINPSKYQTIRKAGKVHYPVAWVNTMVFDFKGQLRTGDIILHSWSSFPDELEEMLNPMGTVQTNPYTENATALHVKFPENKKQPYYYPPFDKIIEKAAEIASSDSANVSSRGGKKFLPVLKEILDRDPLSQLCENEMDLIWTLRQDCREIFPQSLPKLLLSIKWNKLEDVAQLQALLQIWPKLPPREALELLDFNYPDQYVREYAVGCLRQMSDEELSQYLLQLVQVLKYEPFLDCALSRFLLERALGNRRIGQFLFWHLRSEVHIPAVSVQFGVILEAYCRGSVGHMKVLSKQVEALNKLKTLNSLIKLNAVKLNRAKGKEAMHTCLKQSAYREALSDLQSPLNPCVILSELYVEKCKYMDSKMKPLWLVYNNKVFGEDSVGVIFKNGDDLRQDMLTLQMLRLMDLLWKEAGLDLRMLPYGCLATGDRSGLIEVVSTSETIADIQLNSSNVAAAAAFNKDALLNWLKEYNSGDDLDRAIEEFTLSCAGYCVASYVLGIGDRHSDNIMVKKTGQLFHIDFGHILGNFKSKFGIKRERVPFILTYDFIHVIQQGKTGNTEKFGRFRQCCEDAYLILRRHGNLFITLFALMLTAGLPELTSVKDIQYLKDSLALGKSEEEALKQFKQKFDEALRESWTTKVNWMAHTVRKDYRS
T1 sequence (P42336 with tags, fused parts or gaps limits assumed): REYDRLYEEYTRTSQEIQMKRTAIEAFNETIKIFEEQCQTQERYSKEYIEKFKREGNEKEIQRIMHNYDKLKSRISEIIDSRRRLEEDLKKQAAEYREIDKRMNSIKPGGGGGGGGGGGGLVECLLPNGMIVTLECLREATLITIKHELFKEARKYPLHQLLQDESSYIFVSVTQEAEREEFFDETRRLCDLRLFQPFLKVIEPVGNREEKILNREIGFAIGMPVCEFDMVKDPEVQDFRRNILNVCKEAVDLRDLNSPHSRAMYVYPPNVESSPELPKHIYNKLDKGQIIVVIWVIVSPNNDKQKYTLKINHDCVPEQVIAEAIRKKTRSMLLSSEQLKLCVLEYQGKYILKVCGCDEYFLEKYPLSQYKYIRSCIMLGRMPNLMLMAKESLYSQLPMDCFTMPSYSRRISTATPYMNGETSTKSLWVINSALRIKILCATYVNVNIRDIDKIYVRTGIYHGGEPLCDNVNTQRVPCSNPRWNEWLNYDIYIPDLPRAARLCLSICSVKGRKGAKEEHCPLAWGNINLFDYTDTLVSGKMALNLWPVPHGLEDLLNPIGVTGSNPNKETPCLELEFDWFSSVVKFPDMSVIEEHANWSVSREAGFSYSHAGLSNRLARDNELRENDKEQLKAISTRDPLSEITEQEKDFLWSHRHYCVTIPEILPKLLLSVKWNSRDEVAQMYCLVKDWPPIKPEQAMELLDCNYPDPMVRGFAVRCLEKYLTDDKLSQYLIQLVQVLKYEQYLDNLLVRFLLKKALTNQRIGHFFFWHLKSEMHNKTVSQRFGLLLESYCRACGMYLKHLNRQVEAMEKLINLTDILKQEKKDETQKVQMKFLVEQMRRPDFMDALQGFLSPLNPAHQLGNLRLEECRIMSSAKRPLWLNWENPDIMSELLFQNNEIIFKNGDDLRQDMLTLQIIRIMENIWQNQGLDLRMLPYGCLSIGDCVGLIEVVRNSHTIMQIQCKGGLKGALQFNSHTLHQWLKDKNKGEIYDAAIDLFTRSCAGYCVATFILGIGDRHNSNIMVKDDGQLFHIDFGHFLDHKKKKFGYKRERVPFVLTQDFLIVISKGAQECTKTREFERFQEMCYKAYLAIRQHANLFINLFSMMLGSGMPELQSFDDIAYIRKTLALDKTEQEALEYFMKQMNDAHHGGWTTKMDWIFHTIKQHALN
T3 sequence (O00329 with tags, fused parts or gaps limits assumed): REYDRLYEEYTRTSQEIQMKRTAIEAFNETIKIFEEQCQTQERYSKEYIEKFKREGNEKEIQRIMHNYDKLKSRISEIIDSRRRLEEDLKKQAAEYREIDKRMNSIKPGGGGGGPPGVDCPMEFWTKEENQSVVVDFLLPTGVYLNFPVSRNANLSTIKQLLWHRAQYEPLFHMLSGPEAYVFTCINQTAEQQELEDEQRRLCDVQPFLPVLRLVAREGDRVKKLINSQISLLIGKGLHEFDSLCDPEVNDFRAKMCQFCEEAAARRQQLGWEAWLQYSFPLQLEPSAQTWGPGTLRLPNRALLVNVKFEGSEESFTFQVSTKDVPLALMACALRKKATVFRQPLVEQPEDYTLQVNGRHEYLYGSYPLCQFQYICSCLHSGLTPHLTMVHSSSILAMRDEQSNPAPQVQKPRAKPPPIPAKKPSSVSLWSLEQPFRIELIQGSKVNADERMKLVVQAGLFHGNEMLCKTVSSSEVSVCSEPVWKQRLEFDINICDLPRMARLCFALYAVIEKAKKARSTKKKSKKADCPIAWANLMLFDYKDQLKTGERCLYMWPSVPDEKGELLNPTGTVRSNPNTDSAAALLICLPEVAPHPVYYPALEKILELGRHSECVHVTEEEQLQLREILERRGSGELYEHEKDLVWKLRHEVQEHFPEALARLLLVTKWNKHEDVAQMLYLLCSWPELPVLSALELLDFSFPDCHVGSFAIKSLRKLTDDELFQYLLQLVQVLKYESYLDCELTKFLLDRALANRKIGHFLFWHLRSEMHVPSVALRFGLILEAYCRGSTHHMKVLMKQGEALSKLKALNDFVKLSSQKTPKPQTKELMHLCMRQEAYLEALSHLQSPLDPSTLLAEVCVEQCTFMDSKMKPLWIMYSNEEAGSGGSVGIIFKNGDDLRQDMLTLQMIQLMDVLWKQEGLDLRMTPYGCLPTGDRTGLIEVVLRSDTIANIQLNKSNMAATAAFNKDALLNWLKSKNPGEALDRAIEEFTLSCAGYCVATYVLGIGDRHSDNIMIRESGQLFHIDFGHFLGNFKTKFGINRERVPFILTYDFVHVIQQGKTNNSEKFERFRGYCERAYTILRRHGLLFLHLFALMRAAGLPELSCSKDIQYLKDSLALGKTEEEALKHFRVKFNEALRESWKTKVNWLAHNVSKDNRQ

Structure (SMILES): Nc1ncc(-c2cnc3ccc(-c4ccc(OCC5(N)COC5)cc4)nn23)cc1C(F)(F)F [Example 147, 5-{6-[4-(3-Amino-oxetan-3-ylmethoxy)-phenyl]-imidazo[1,2-b]pyridazin-3-yl}-3-trifluoromethyl-pyridin-2-yl amine]
- IC50 [1]: 61 nM
- IC50 [2]: 496 nM
- IC50 [3]: 227 nM
- IC50 [4]: 1310 nM
- melting point: 198 to 200 °C

Structure (SMILES): COC(=O)NCC1(COc2ccc(-c3ccc4ncc(-c5cnc(N)c(C(F)(F)F)c5)n4n3)cc2)COC1 [Example 173, (3-{4-[3-(6-Amino-5-trifluoromethyl-pyridin-3-yl)-imidazo[1,2-b]Pyridazin-6-yl]-phenoxymethyl}-oxetan-3-ylmethyl)-carbamic acid methyl ester]
- IC50 [1]: 39 nM
- IC50 [2]: 1020 nM
- IC50 [3]: 113 nM
- IC50 [4]: 516 nM
- melting point: 179 to 181 °C

Structure (SMILES): Nc1ncc(-c2ccc3ncc(-c4ccc(CO)cc4)n3n2)cc1C(F)(F)F [Example 168, {4-[6-(6-Amino-5-trifluoromethyl-pyridin-3-yl)-imidazo[1,2-b]pyridazin-3-yl]-phenyl}-methanol]
- IC50 [1]: 11 nM
- IC50 [2]: 25 nM
- IC50 [3]: 14 nM
- IC50 [4]: 585 nM
- melting point: 290 to 292 °C

Structure (SMILES): Nc1ncc(-c2ccc3ncc(-c4ccc(CN5CCC(C(=O)N6CCCC6)CC5)cc4)n3n2)cc1C(F)(F)F [Example 181]
- IC50 [1]: 12 nM
- IC50 [2]: 180 nM
- IC50 [3]: 16 nM
- IC50 [4]: 1080 nM
- melting point: 209 to 211 °C
